# Laboratory results as given in patent US7560473B2 (Institute of Pharmacology and Toxicology Academy of …, priority 2001, dated 2009).
# Legend:
# [1] = test system: spontaneously hypertensive rats; experiment: Acute antihypertensive effects in conscious spontaneously hypertensive rats; type: in vivo; settings: for SBP at 1 h after administration / heart rates at 1 h / SBP at 3 h after administration / heart rates at 3 h / SBP at 5 h after administration / heart rates at 5 h / SBP at 9 h after administration / heart rates at 9 h / SBP at 12 h after administration / heart rates at 12 h / SBP at 24 h after administration / heart rates at 24 h / SBP base value / heart rates base value: po mg/kg: compound 1 3, pinacidil 3, nifedipine 10, bisoprolol 60, captopril 40, means ± SD, 9-13 rats; for heart rates at 1 h / heart rates at 3 h / heart rates at 5 h / heart rates at 9 h / heart rates at 12 h / heart rates at 24 h / heart rates base value: in bpm (unit assumed); for SBP base value / heart rates base value: base value before administration
# Description: Biological activity experiment 2. The acute antihypertensive effects of compound 1 in conscious spontaneously hypertensive rats.
# The methods of biological activity experiment 2 were described by Long Chao-Liang et al: Long Chao-Liang, Wang Hai, Xiao Wen-Bin. Effects of pinacidil on, hypertensive vascular remodeling. Chin J Pharmacol Toxicol 1997; 11(1):42-46.
# [2] = test system: rats anesthetized with pentobarbital sodium; experiment: Antagonism of glibenclamide on the cardiovascular effects in anesthetized rats; type: in vivo, Wistar rats; settings: for +dp/dtmax / DBP / HR / LVSP / MBP / SB / Vpm / −dp/dtmax: iv mg/kg: pinacidil 1.0, nifedipine 1.0, compound 1 0.5, means ± SE; for antagonism of the cardiovascular effects by glibenclamide (in words): glibenclamide 20 mg/kg iv pretreatment
# Experimental: The methods of biological activity experiment 1 were as follows: Male Wistar rats, weighing 280±30 g were purchased from the experimental animal center of Academy of Military Medical Sciences. Rats were anesthetized with pentobarbital sodium (45 mg/kg) by peritoneal injection. A PE50 polyethylene catheter was inserted into the left ventricle through right carotid artery for cardiac function measurement with a pressure energe exchanger, wherein the signal is put into a SMUP-PC biosignal processing system. Cardiac functional parameters such as HR, LVSP, +dp/dtmax, −dp/dtmax and Vpm were recorded. Another two PE50 polyethylene catheters were inserted into the right femoral artery and vein respectively for blood pressure measurement wherein the artery cathether was linked to a four-channel physiology recorder (RM-6000) through a MPU-0.5A Type pressure energe exchanger, which recorded SBP, DBP and MBP, while the vein catheter was used for compound administration. The methods were described by Liu Wei et al: Liu Wei, Wang Hai, Xiao Wen-Bin.
# The methods of Biological activity experiment 3 were the same as those described in the biological activity experiment 1.
# [3] = target: T1, ATP-sensitive potassium channels in vascular smooth muscles (Rattus norvegicus, UniProt Q63563); experiment: Association and dissociation kinetics of [^3H]glibenclamide binding in aortic rings; design: species or system Wistar rat; settings: drug M: compound 1 10^−4, pinacidil 10^−4, ATP 10^−2, ADP 10^−3, UDP 5 × 10^−3, Ade 10^−3; for Dissociation kinetics k2 of [^3H]glibenclamide binding / Association kinetics k1 of [^3H]glibenclamide binding / Association kinetics kobs of [^3H]glibenclamide binding / Association kinetics kA of [^3H]glibenclamide binding: 25° C.; for Dissociation kinetics k2 of [^3H]glibenclamide binding: control 0.72 ± 0.11; for Dissociation kinetics Kd of [^3H]glibenclamide binding in presence of the drug: Kd of the radioligand, not of the drug, control 0.55 ± 0.14; for Association kinetics k1 of [^3H]glibenclamide binding / Association kinetics kobs of [^3H]glibenclamide binding / Association kinetics kA of [^3H]glibenclamide binding: [^3H]-glibenclamide 3 nM; for Association kinetics k1 of [^3H]glibenclamide binding: control 1.31 ± 0.14; for Association kinetics kobs of [^3H]glibenclamide binding: control 4.65 ± 0.37, means ± SD, n = 4~10; for Association kinetics kA of [^3H]glibenclamide binding: control 181.90 ± 46.90
# T1 construct: The aorta was cut into about 3-5 mm arterial rings and the vascular endothelium was scraped off; from tissue; host or cells: endothelium-removed aortic rings of male Wistar rats
# Description: Biological activity experiment 4. Allosteric regulation of novel compounds on ATP-sensitive potassium channels in vascular smooth muscles.
# To study the allosteric regulation of compound 1 on ATP-sensitive potassium channels in vascular smooth muscles, the radio-labled-ligand was used in the biological activity experiment 4.
# 1. The allosteric regulation of compound 1 on the binding sites for the selective KATP blocker glibenclamide in vascular smooth muscles was studied as follows: After decapitated, the male Wistar rat (340±20 g) was immediately incised open the thoracic cavity. The aorta was dissected and immersed in the 4° C. buffer containing 10 mM HEPES to wash off the blood, then carefully extirpated the fat, peripheral connective tissues and thrombus. The aorta was cut into about 3-5 mm arterial rings and the vascular endothelium was scraped off with wet tampon. The arterial rings were blotted, weighted and transferred into the tubes containing proper amount of ice colded physiological saline buffer. […] At 5,10,15,20,30,60,90 and 120 min after incubation, 9 mL ice colded Tris buffer (50 mM) was added to terminate the reaction. After washing off the free and bound [^3H]-glibenclamide, the aorta was blotted, transferred to a scintillator, added 50 uL 30% H2O2 and reacted for 2 h at 80° C. After cooling, 2.5 mL ethyl glycol and 5 mL 1% B-BPD xylene were added in sequence, kept stationary for 8 h and measured under a scintillometer for cpm value. The resulting data were fit into a regression line with In[BEQ/(BEQ-Bt)]vs.t and the parameters for association kinetics were obtained. In the disassociation kinetics experiments, the aorta treated as described above and [^3H]-glibenclamide were incubated for 60 min at 25° C., and then 30 uM glibenclamide was added. 0,5,15,30,60,90 and 120 min later, the cpm values for the complex of [^3H]-glibenclamide and KATP were measured. The resulting data were fit into a regression line with In(B/BEQ)]vs.t and the parameters for disassociation kinetics were obtained. 2. The allosteric regulation of compound 1 on the binding sites for the selective KATP activator P1075 in vascular smooth muscles was studied with the method as described above, but some conditions should be changed as follows: the incubation temperature was 37° C. instead of 25° C.;P1075 was used instead of glibenclamide; In the association kinetics experiments, the time points for sampling were 5,10,15,20,30,45,60 and 90 min, while in the disassociation kinetics experiments, that were 1,3,5,10,20,30,45 and 60 min. Biological activity experiment 5. The effects of compound 1 on the specific binding of high selective activator [^3H]P1075 with ATP-sensitive potassium channels in vascular smooth muscles.
# [4] = target: T1, ATP-sensitive potassium channels in vascular smooth muscles; experiment: Inhibition of specific binding of [^3H]P1075 in endothelium-removed rat aorta; design: species or system Wistar rat; settings: for IC50 / Ki: [^3H] P1075 5 nmol L^−1, 90 minutes at 37° C., endothelium-removed rat aorta; for Ki: read-out: pKi for inhibition of specific binding of [^3H]P1075 (converted)
# [5] = A: after administration (30 min after pinacidil, 10 min nifedipine, 15 min compound 1), glibenclamide 20 iv pretreatment
# [6] = B: before administration, glibenclamide 20 iv pretreatment ten minutes
# T1 sequence (Q63563 1-1545 isoform Q63563-2): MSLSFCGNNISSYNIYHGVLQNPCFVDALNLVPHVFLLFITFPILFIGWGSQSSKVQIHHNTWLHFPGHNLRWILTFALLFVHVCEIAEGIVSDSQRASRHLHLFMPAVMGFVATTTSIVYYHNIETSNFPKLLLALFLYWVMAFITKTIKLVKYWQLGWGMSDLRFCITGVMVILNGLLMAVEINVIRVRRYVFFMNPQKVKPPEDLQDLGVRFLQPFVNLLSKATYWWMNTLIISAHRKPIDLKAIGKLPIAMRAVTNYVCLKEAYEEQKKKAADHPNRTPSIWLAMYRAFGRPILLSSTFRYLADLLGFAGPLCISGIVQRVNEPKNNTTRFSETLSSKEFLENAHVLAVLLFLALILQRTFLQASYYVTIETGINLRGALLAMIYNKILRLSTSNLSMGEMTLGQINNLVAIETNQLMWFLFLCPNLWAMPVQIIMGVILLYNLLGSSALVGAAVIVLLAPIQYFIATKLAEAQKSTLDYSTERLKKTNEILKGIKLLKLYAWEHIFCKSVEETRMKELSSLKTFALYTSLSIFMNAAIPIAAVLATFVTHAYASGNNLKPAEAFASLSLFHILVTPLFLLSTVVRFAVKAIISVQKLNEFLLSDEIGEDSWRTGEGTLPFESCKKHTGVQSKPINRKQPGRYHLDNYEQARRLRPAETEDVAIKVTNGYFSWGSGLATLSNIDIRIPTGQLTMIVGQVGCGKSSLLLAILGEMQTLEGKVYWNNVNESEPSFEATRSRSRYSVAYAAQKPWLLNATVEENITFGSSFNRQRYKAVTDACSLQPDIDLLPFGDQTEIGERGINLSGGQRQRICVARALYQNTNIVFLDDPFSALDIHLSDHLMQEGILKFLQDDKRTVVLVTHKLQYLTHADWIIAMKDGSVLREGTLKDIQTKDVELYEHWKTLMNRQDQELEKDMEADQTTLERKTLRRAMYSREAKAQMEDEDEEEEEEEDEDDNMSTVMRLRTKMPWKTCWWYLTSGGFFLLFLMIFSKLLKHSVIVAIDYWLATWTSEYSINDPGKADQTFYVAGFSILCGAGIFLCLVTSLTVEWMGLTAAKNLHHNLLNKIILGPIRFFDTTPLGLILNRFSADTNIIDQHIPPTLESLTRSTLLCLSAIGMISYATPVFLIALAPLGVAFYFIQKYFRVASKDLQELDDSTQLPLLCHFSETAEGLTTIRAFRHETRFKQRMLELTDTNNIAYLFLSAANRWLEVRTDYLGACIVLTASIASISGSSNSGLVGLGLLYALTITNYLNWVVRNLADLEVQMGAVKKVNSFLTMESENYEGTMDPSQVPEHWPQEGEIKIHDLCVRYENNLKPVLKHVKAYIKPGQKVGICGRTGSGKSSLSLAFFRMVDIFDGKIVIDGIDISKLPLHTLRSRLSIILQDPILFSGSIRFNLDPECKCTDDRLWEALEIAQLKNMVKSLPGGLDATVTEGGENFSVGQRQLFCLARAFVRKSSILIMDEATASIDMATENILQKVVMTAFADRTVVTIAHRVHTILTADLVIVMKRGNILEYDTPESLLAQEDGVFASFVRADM
# T1 sequence (Q63664 whole entry partner): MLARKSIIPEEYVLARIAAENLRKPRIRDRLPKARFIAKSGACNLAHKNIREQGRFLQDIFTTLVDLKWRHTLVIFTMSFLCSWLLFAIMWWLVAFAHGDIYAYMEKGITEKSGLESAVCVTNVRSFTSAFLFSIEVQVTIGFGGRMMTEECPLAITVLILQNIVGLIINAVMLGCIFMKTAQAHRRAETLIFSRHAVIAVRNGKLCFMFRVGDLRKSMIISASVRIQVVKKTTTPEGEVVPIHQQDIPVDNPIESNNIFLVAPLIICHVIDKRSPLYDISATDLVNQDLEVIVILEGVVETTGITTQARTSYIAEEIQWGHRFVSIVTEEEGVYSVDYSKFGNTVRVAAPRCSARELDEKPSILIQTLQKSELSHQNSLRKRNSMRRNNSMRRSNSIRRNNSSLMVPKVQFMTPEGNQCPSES
smiles,measurement,setting,value
"CC(C)NC(C)(C)C(C)C [compound 1, N-(1-methylethyl)-2,3-dimethyl-2-butylamine]",SBP at 1 h after administration,[1],227 ± 12 mmHg
same,heart rates at 1 h,[1],414 ± 27
same,SBP at 3 h after administration,[1],218 ± 7 mmHg
same,heart rates at 3 h,[1],412 ± 27
same,SBP at 5 h after administration,[1],215 ± 15 mmHg
same,heart rates at 5 h,[1],408 ± 25
same,SBP at 9 h after administration,[1],229 ± 8 mmHg
same,heart rates at 9 h,[1],407 ± 21
same,SBP at 12 h after administration,[1],243 ± 7 mmHg
same,heart rates at 12 h,[1],413 ± 15
same,SBP at 24 h after administration,[1],244 ± 9 mmHg
same,heart rates at 24 h,[1],417 ± 12
same,SBP base value,[1],246 ± 11 mmHg
same,heart rates base value,[1],419 ± 20
same,duration of antihypertensive action,"[1]; oral administration, spontaneously hypertensive rats",9 h
same,+dp/dtmax,[2]; [5],672 ± 36 kPa/a
same,DBP,[2]; [5],77 ± 9 mmHg
same,HR,[2]; [5],357 ± 18 bpm
same,LVSP,[2]; [5],133 ± 6 mmHg
same,MBP,[2]; [5],86 ± 9 mmHg
same,SB,[2]; [5],105 ± 10 mmHg
same,Vpm,[2]; [5],2.7 ± 03 /a
same,−dp/dtmax,[2]; [5],507 ± 39 kPa/a
same,+dp/dtmax,[2]; [6],978 ± 54 kPa/a
same,DBP,[2]; [6],98 ± 7 mmHg
same,HR,[2]; [6],394 ± 13 bpm
same,LVSP,[2]; [6],180 ± 10 mmHg
same,MBP,[2]; [6],110 ± 7 mmHg
same,SB,[2]; [6],134 ± 8 mmHg
same,Vpm,[2]; [6],3.3 ± 0.2 /a
same,−dp/dtmax,[2]; [6],819 ± 56 kPa/a
same,antagonism of the cardiovascular effects by glibenclamide (in words),[2],could be antagnized by glibenclamide
same,Dissociation kinetics k2 of [^3H]glibenclamide binding,[3],1.02 ± 0.14 ×10^2 nM^−1 · min^−1
same,Dissociation kinetics Kd of [^3H]glibenclamide binding in presence of the drug,[3],1.64 ± 0.69 nM
same,Association kinetics k1 of [^3H]glibenclamide binding,[3],0.62 ± 0.25 ×10^−2nM^−1 · min^−1
same,Association kinetics kobs of [^3H]glibenclamide binding,[3],2.90 ± 0.74 ×10^−2nM^−1 · min^−1
same,Association kinetics kA of [^3H]glibenclamide binding,[3],61.04 ± 25.89 ×10^−2nM^−1 · min^−1
same,IC50,[4],355 ± 53.7 nM
same,Ki,[4],355 nM
same,"competitive inhibition of [^3H] P1075 binding, times weaker than that of P1075",[4]; relative to P1075,39 times
same,"competitive inhibition of [^3H] P1075 binding, times stronger than that of glibenclamide",[4]; relative to glibenclamide,166 times
same,"competitive inhibition of [^3H] P1075 binding, times weaker than that of pinacidil",[4]; relative to pinacidil,1.8 times
CC(N/C(=N\C#N)Nc1ccncc1)C(C)(C)C (centres unmarked) [pinacidil],SBP at 1 h after administration,[1],208 ± 5 mmHg
same,heart rates at 1 h,[1],421 ± 17
same,SBP at 3 h after administration,[1],236 ± 5 mmHg
same,heart rates at 3 h,[1],400 ± 15
same,SBP at 5 h after administration,[1],241 ± 4 mmHg
same,heart rates at 5 h,[1],354 ± 14
same,SBP at 9 h after administration,[1],242 ± 5 mmHg
same,heart rates at 9 h,[1],365 ± 16
same,SBP at 12 h after administration,[1],244 ± 5 mmHg
same,heart rates at 12 h,[1],352 ± 20
same,SBP at 24 h after administration,[1],244 ± 5 mmHg
same,heart rates at 24 h,[1],365 ± 15
same,SBP base value,[1],242 ± 5 mmHg
same,heart rates base value,[1],351 ± 19
same,+dp/dtmax,[2]; [5],571 ± 33 kPa/a
same,DBP,[2]; [5],67 ± 6 mmHg
same,HR,[2]; [5],317 ± 25 bpm
same,LVSP,[2]; [5],111 ± 9 mmHg
same,MBP,[2]; [5],76 ± 7 mmHg
same,SB,[2]; [5],91 ± 8 mmHg
same,Vpm,[2]; [5],4.1 ± 0.5 /a
same,−dp/dtmax,[2]; [5],447 ± 73 kPa/a
same,+dp/dtmax,[2]; [6],673 ± 28 kPa/a
same,DBP,[2]; [6],92 ± 5 mmHg
same,HR,[2]; [6],353 ± 17 bpm
same,LVSP,[2]; [6],124 ± 6 mmHg
same,MBP,[2]; [6],104 ± 5 mmHg
same,SB,[2]; [6],128 ± 5 mmHg
same,Vpm,[2]; [6],4.3 ± 0.5 /a
same,−dp/dtmax,[2]; [6],536 ± 42 kPa/a
same,antagonism of the cardiovascular effects by glibenclamide (in words),[2],could aslo block
same,Dissociation kinetics k2 of [^3H]glibenclamide binding,[3],1.15 ± 0.27 ×10^2 nM^−1 · min^−1
same,Dissociation kinetics Kd of [^3H]glibenclamide binding in presence of the drug,[3],2.95 ± 0.95 nM
same,Association kinetics k1 of [^3H]glibenclamide binding,[3],0.39 ± 0.24 ×10^−2nM^−1 · min^−1
same,Association kinetics kobs of [^3H]glibenclamide binding,[3],2.32 ± 0.67 ×10^−2nM^−1 · min^−1
same,Association kinetics kA of [^3H]glibenclamide binding,[3],33.91 ± 22.43 ×10^−2nM^−1 · min^−1
same,IC50,[4],200 ± 43.6 nM
same,Ki,[4],200 nM
